Experiment [1] relates to methicillin resistant Staphyloccocus aureus (MRSA, strain ATCC 700699). The experiment is described as follows: MIC against methicillin resistant S. aureus (NCCLS dilution). The settings on record: Staphylococcus aureus, serial two-fold dilutions, 96-well. In kind it is cell-based. As to the method: The sensitivity of methicillin resistant Staphyloccocus aureus (MRSA, strain ATCC 700699, American Type Culture Collection, Manassas, Va.) to the disclosed fabI inhibitors was followed by measuring the minimal inhibitory concentration (MIC) at varying inhibitor levels. This was performed according to NCCLS (National Center for Clinical Laboratory Standards) recommendations (NCCLS, 1997, METHODS FOR DILUTION ANTIMICROBIAL SUSCEPTIBILITY TESTS FOR BACTERIA THAT GROW AEROBICALLY, 4th ed.; approved standard. NCCLS document M7-A4. NCCLS, Wayne, Pa.), in 100 μl volume in 96-well format, with serial two-fold dilutions of drug concentration.

For experiment [2], the target named is T1, E. coli fabI (Escherichia coli, UniProt P0AEK4).
T1 construct: made in house; host or cells: E. coli BL21(DE3)
T1 sequence (P0AEK4 whole entry): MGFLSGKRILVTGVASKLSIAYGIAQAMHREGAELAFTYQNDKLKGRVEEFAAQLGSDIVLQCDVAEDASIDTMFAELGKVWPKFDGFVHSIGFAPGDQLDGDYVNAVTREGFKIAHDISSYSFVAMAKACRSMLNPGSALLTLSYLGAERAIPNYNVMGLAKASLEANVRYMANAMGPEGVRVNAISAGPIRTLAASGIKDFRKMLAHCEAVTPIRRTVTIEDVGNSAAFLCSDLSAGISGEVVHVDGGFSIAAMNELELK
The experiment in a line: fabI kinetic assay (NADH absorption at 340 nm, crotonoyl-CoA substrate). It is filed as biochemical. Here is the method:
In order to perform more detailed kinetic assays on the disclosed compounds, additional purifed fabI was needed. The E. coli fabI gene was cloned into the pET30a expression vector (Novagen, Inc., Madison, Wis.) and expressed in E. coli BL21(DE3) cells. The purification procedure utilized chromatography with Q-sepharose, blue resin, and HA resin as follows.
Each cell pellet was suspended in a 4 fold-volume of lysis buffer (50 mM KH2PO4 pH 8.0, 100 mM NaCl, 2 mM ethylene glycol tetra-acetic acid (EGTA), and 10% glycerol). Cells were broken by passage through a Microfludics cell disrupter 4 times, and the cell lysate was centrifuged at 30,000×g for 20 minutes. The supernatant was applied to a Q-sepharose column pre-equilibrated in a buffer composed of 10 mM Tris-HCl pH 8.0, 0.1 mM EGTA, 1 mM phenylmethylsulfonylfluoride (PMSF), 100 mM NaCl, 10% glycerol, 0.1% β-mercaptoethanol, and 0.02% Brij 35. fabI was eluted with a NaCl gradient (0.1-1M) in the equilibration buffer. The major peak fractions were pooled and concentrated, then dialyzed overnight at 4° C. in 2 L of dialysis buffer (10 mM Tris-HCl pH 7.5, 0.1 mM EGTA, 0.1 mM PMSF, 10% glycerol, 0.1% β-mercaptoethanol, and 0.02% Brij 35). The dialyzed solution was centrifuged at 3,000×g for 20 minutes, and the supernatant was loaded on a blue resin column pre-equilibrated in a buffer composed of 10 mM Tris-HCl pH 7.5, 0.1 mM EGTA, 1 mM PMSF, 50 mM NaCl, 10% glycerol, 0.1% β-mercaptoethanol, and 0.02% Brij 35. fabI was eluted with the equilibration buffer containing NaCl (gradient 50˜1000 mM). The major peak fractions were pooled and dialyzed overnight at 4° C. in 2 L of the equilibration buffer as described above. Then the dialyzed solution was centrifuged at 3,000×g for 20 minutes, and the supernatant was further purified on a hydroxyapatite column pre-equilibrated in a buffer consisting of 20 mM KH2PO4 pH 8.0, 0.1 mM EGTA, 0.1 mM PMSF, 10% glycerol, 0.1% β-mercaptoethanol, and 0.02% Brij 35. fabI was eluted with a gradient of KH2PO4 up to 500 mM. The peak fractions were pooled and dialyzed in storage buffer (10 mM MOPS pH7.0, 150 mM NaCl, 0.1 mM EGTA, 50% glycerol, 0.02% Brij 35), then stored at −20° C.
The kinetic assay was used to confirm the activity of compounds identified by the single-point assay and screen and to measure the IC50 of compounds which inhibit fabI. It was performed in a 96 well microtiter dish. The final concentrations of each component in each 50 μl reaction are as follows—sodium phosphate pH 7.5, 100 mM; NADH, 200 uM; dithiothreitol (DTT), 1 mM; fabI, 3 ug/ml; crotonoyl-CoA, 0.8 mM.
A 2 ul volume of each compound to be tested was loaded into each well, followed by 30 ul Buffer A (sodium phosphate pH7.5, 100 mM; DTT, 1 mM; fabI, 5 ug/ml, obtained as described below). For IC50 measurements, the compound was tested in serial dilution. The reaction was initiated by adding 20 ul Buffer B (sodium phosphate pH7.5, 100 mM; NADH, 500 uM; DTT, 1 mM; and the substrate, crotonoyl-CoA, 2 mM). The reaction was monitored for 5.5 minutes on a spectrometer by measuring absorption at 340 nm. The rate of reduction of NADH in each reaction well was collected and the percentage inhibition was calculated by using SOFTmax® PRO software (Molecular Devices, Sunnyvale, Calif.). The percentage of inhibition of each compound was calculated according to following formula: Percentage Inhibition=100*(rate in the presence of compound-rate of negative control)/(rate of positive control-rate of negative control)
The negative control was the reaction of fabI in the presence of 2% DMSO but no inhibitory compounds, and the positive control was the mixture of the all reaction components excluding fabI.

Experiment [3] concerns fabI (acetate incorporation into fatty acids) in S. aureus strain ATCC 700699. The experiment is described as follows: 14C acetate incorporation into fatty acids in S. aureus. The settings on record: 0.25x-2x MIC; 0-30 min at 37° C.; FIG. 1. It is filed as cell-based. Here is the method:
Radioactive (14C) acetic acid was added to 0.4 uCi/ml. After incubation at 37° C. for 0, 5, 10, 15, and 30 minutes, samples were taken, and cells were added to ice cold 10% trichloroacetic acid (TCA) for 30 min. Next, cells were filtered (Millipore MultiScreen-FC filters), washed 2× with 200 ul and 1× with 100 ul cold 10% TCA followed by 2× with 200 ul and 1× with 100 ul cold water. The filters were added to 5 ml scintillation fluid and counts per minute were measured in a scintillation counter. The % inhibition of acetate incorporation into fatty acids was determined by comparison to a control consisting of cells not treated with inhibitor.

The test system of experiment [4] is strain of Staphylococcus aureus that under-expresses a fabI gene under control of a regulated promoter. The experiment in a line: MIC in IPTG-regulated fabI under-expressing S. aureus strain. It is filed as cell-based. From the text:
In general, a bacterial strain which is under-producing the target of interest will be more sensitive to test compounds than a wild-type strain if the compound is acting via inhibition of that target. Accordingly, a strain of Staphylococcus aureus that under-expresses a fabI gene under control of a regulated promoter was constructed.
First, the endogenous S. aureus fabI gene was replaced with a drug-resistance marker (erythromycin-resistance, erm^r) in a two-step allele-replacement procedure (see F. Fan et al., Plasmid, 2001, 46: 71-75). About 1 Kb of DNA sequence flanking each side of the S. aureus fabI gene (SwissProt Q9RMI3; M. Kuroda et al., Lancet 2001, 357:1225-1240) was PCR-amplified from genomic DNA, ligated to an erythromycin-resistance cassette by cross-over PCR (A. J. Link et al., J. Bacteriol., 1997, 179: 6228-6237), and cloned into an allele-replacement suicide vector carrying a kanamycin-resistance marker (kan^r) and the sacB gene encoding levansucrase. This allele-replacement plasmid was introduced by electroporation into an S. aureus host strain carrying the E. coli lactose operon repressor (lacI) and a lac-promoter driving T7 RNA polymerase production from the chromosome. Selection for kan^r yielded cells containing the entire plasmid by means of a single cross-over recombination. […]

Converted amounts (≈) assume the structure as drawn. Where two headings read alike, the source gives them in different places.

Turning to `N#Cc1c(-c2ccc(Cl)cc2)cc(-c2cccs2)nc1SCC(N)=O` [Q], in experiment [1], the MIC was greater than 64 µg/mL. In experiment [2], this compound registered an IC50 of 33 µM.

In experiment [1], `COc1ccc(NC(=O)CSc2nc(-c3cccs3)cc(-c3ccc(F)cc3)c2C#N)cc1OC` [D] yielded an MIC greater than 64 µg/mL. In experiment [2], this compound showed an IC50 of 9.2 µM.

Consider `N#Cc1c(-c2cccs2)cc(-c2cccs2)nc1SCc1cccc(C(=O)O)c1` [G], for which, in experiment [1], the MIC was determined as 1.5 µg/mL (≈ 3.45 µM). In addition, the IC50 in experiment [2] was found to be 6 µM.

`N#Cc1c(-c2cccs2)cc(-c2cccs2)nc1SCCc1ccc(C(=O)O)cc1` [E] displayed an MIC in experiment [1] of 0.75 µg/mL (≈ 1.67 µM). The compound also registered a 50% inhibitory concentration (IC50) in experiment [2] of 3 µM.

`N#Cc1c(-c2cccs2)cc(-c2cccs2)nc1SCc1ccc(CC(=O)O)cc1` [H] showed an MIC in experiment [1] of 4 µg/mL (≈ 8.92 µM). The compound further displayed an IC50 in experiment [2] of 25 µM.

Consider `N#Cc1c(-c2cccs2)cc(-c2cccs2)nc1SCCC(=O)O` [P], for which, in experiment [2] (purified E. coli fabI 3 ug/ml, NADH 200 uM, crotonoyl-CoA 0.8 mM, pH 7.5, read-out: IC50), the IC50 was 87 µM.

Compound `CC(C)NC(=O)CSc1nc(-c2cccs2)cc(-c2ccc(F)cc2)c1C#N` [B] gave an MIC in experiment [1] greater than 64 µg/mL. In experiment [2], this compound had an IC50 of 12 µM.

Turning to `CC(C)NC(=O)CSc1nc(-c2cccs2)cc(-c2ccc(Cl)cc2)c1C#N` [N], the MIC in experiment [1] was greater than 64 µg/mL. This compound displayed an IC50 in experiment [2] of 46 µM.

In experiment [1], `CC(Sc1nc(-c2cccs2)cc(-c2cccs2)c1C#N)c1ccc(C(=O)O)cc1` (centres unmarked) [F] yielded an MIC of 0.75 µg/mL (≈ 1.67 µM). The compound also yielded an IC50 in experiment [2] of 3 µM.

`N#Cc1c(-c2cccs2)cc(-c2cccs2)nc1SC(C(=O)O)c1ccccc1` (centres unmarked) [Compound C] gave an MIC in experiment [1] of 32 µg/mL (≈ 73.6 µM). The compound also showed an IC50 in experiment [2] of 12.3 µM.

Turning to `N#Cc1c(-c2cccs2)cc(-c2cccs2)nc1SCc1ccc(C(=O)O)cc1` [Compound A], the MIC came out at 2 µg/mL (≈ 4.6 µM) in experiment [1]; 8 µg/mL in experiment [4] (read-out: minimum inhibitory concentration (MIC), fabI regulated by IPTG, before the inducer (IPTG) level was reduced); 4 µg/mL in experiment [4] (read-out: minimum inhibitory concentration (MIC), fabI regulated by IPTG, inducer (IPTG) level reduced). Moreover, the “inhibition of acetate incorporation into fatty acids (activity of fabI)” value in experiment [3] is on record as “marked inhibition”. Moreover, 4 µM corresponded to half-maximal inhibition in experiment [2] (IC50).

In experiment [1], `COc1ccc(-c2cc(-c3ccco3)c(C#N)c(SCc3ccc(C(=O)O)cc3)n2)cc1` [I] yielded an MIC of 8 µg/mL (≈ 18.1 µM). The compound further came in with an IC50 in experiment [2] of 25 µM.

The values above are taken from patent US20070027190A1, “Antibacterial fab i inhibitors” (priority 2003, published 2007).
